Measured values from ChEMBL document CHEMBL4732083, “Synthesis and anti-inflammatory activity of saponin derivatives of δ-oleanolic acid” (Eur J Med Chem, 2021).
Calls of active or inactive are those of the source. No cut-off for these calls is given here.

Columns and labels:
Mus musculus [1] = experiment: Antiinflammatory activity against LPS/D-GalN-induced fulminant hepatic failure BALB/c mouse model assessed as inhibition of IL-6 mRNA expression in liver at 200 mg/kg, IG once daily for 3 days by RT-PCR analysis; type: functional, organism-based; details: time 3.0 day
[2] = AUC (0 to infinity) in BALB/c mouse at 10 mg/kg, po by LC/MS-MS analysis; type: ADME, organism-based; set-up: route oral, time infinity, dose 10 mg/kg; details: in vivo
Mus musculus [3] = experiment: Antiinflammatory activity against LPS/D-GalN-induced fulminant hepatic failure BALB/c mouse model assessed as inhibition of TNFalpha mRNA expression in liver at 200 mg/kg, IG once daily for 3 days by RT-PCR analysis; type: functional, organism-based; details: time 3.0 day
Mus musculus [4] = experiment: Hepatoprotective activity in LPS/D-GalN-induced fulminant hepatic failure BALB/c mouse model assessed as inhibition of serum AST level at 200 mg/kg, IG once daily for 3 days; type: functional, organism-based; details: time 3.0 day
[5] = AUC (0 to t) in BALB/c mouse at 2 mg/kg, iv by LC/MS-MS analysis; type: ADME, organism-based; set-up: dose 2 mg/kg; details: in vivo
[6] = Tmax in BALB/c mouse at 2 mg/kg, iv by LC/MS-MS analysis; type: ADME, organism-based; details: in vivo
THP-1 [7] = experiment: Cytotoxicity against human THP-1 cells assessed as reduction in cell viability at 1 to 10 uM; type: cell-based; details: thp-1, 10 µM
[8] = Tmax in BALB/c mouse at 10 mg/kg, po by LC/MS-MS analysis; type: ADME, organism-based; details: in vivo
[9] = AUC (0 to infinity) in BALB/c mouse at 2 mg/kg, iv by LC/MS-MS analysis; type: ADME, organism-based; set-up: route intravenous, time infinity, dose 2 mg/kg; details: in vivo
[10] = Cmax in BALB/c mouse at 10 mg/kg, po by LC/MS-MS analysis; type: ADME, organism-based; set-up: route oral, dose 10 mg/kg; details: in vivo
THP-1 [11] = experiment: Antiinflammatory activity in human THP-1 cells assessed as reduction in LPS-induced TNF alpha secretion at 10 uM incubated for 12 hrs measured by ELISA; type: functional, cell-based
[12] = Metabolic stability in mouse liver microsomes assessed as half life in presence of NADPH by LC-MS analysis; type: ADME, Microsome
[13] = Metabolic stability in human liver microsomes assessed as half life in presence of NADPH by LC-MS analysis; type: ADME, Microsome
[14] = Bioavailability in BALB/c mouse at 10 mg/kg, po by LC/MS-MS analysis; type: ADME, organism-based; details: in vivo
Mus musculus [15] = experiment: Hepatoprotective activity in LPS/D-GalN-induced fulminant hepatic failure BALB/c mouse model assessed as inhibition of serum ALT level at 200 mg/kg, IG once daily for 3 days; type: functional, organism-based; details: time 3.0 day
[16] = Half life in BALB/c mouse at 2 mg/kg, iv by LC/MS-MS analysis; type: ADME, organism-based; details: in vivo
[17] = AUC (0 to t) in BALB/c mouse at 10 mg/kg, po by LC/MS-MS analysis; type: ADME, organism-based; set-up: dose 10 mg/kg; details: in vivo
THP-1 [18] = experiment: Antiinflammatory activity in human THP-1 cells assessed as reduction in LPS-induced IL6 secretion at 10 uM incubated for 12 hrs measured by ELISA; type: functional, cell-based
Homo sapiens [19] = species on record: Homo sapiens; experiment: Effect on recombinant AMPKalpha1beta1gamma1 (unknown origin) phosphorylation
Homo sapiens [20] = species on record: Homo sapiens; experiment: Effect on recombinant AMPK alpha2beta2gamma1 (unknown origin) phosphorylation
[21] = Half life in BALB/c mouse at 10 mg/kg, po by LC/MS-MS analysis; type: ADME, organism-based; details: in vivo
Mus musculus [22] = experiment: Hepatoprotective activity in LPS/D-GalN-induced fulminant hepatic failure BALB/c mouse model assessed as changes in liver histology at 200 mg/kg, IG once daily for 3 days by H/E staining based analysis; type: functional, organism-based; details: time 3.0 day
[23] = Cmax in BALB/c mouse at 2 mg/kg, iv by LC/MS-MS analysis; type: ADME, organism-based; set-up: route intravenous, dose 2 mg/kg; details: in vivo

AUC(0-inf) [2]: 1690 ng·h/mL | AUC(0-t) [5]: 1350 ng·h/mL | Tmax [6]: 4.8 min | Tmax [8]: 25.2 min | AUC(0-inf) [9]: 1360 ng·h/mL | Cmax [10]: 1840 ng/mL | half-life [12]: > 120 min | half-life [13]: > 120 min | bioavailability [14]: 24.7% | half-life [16]: 21 min | AUC(0-t) [17]: 1670 ng·h/mL | Activity (Homo sapiens [19]): inactive | Activity (Homo sapiens [20]): inactive | half-life [21]: 21 min | Cmax [23]: 4410 ng/mL
Structure (SMILES): CC1(C)CC[C@]2(C(=O)O)CC[C@]3(C)C(=C2C1)CC[C@@H]1[C@@]2(C)CC[C@H](O[C@@H]4OC[C@H](O)[C@H](O)[C@H]4O)C(C)(C)[C@@H]2CC[C@]13C
Activity (Mus musculus [1]): Active | Activity (Mus musculus [3]): Active | Activity (Mus musculus [4]): Active | Activity (THP-1 [7]): Non-Toxic | Activity (THP-1 [11]): Active | Activity (Mus musculus [15]): Active | Activity (THP-1 [18]): Active | Activity (Mus musculus [22]): Active
